Values joined by “and” are separate entries in the source; they are usually repeats but may differ in a detail not shown here. Identical values can stand only once. After the bases stand the sugars from the 5' end (letter, count) and the backbone: PS all phosphorothioate, else s phosphorothioate and o phosphodiester by linkage. Methylation of C is not given here. e = 2'-O-(2-methoxyethyl) (MOE); k = constrained ethyl (cEt); d = 2'-deoxy (DNA)
Target: APOL1
Conditions: ASO

GTTTTGTAAGTGCAAC (sugars kkddddkekekkdddd, PS)
target mRNA inhibition (A431, 2 µM): 62%

TTGTAAGTGCAACCAA (sugars kkdddddkekeddddd, PS)
target mRNA inhibition (A431, 2 µM): 81%

ATTCTATTAGAGGGCT (sugars k3 d4 k3 e1 d5, PS)
target mRNA inhibition (A431, 2 µM): 85%

AGGTTTGGATGGAAGG (sugars k4 d9 k3, PS)
target mRNA inhibition (A431, 0.0625 µM): 36%
target mRNA inhibition (A431, 0.25 µM): 73%
target mRNA inhibition (A431, 1 µM): 88%

GAGCGATTGTCTTGTT (sugars k4 d9 k3, PS)
target mRNA inhibition (A431, 0.0625 µM): 62% and 83%
target mRNA inhibition (A431, 0.25 µM): 85% and 92%
target mRNA inhibition (A431, 1 µM): 92% and 95%

GGGTTATGAAATTATT (sugars kkkddddkekekdddd, PS)
target mRNA inhibition (A431, 2 µM): 73%

ACGCAATGCTGACTTG (sugars kkddddkekekkdddd, PS)
target mRNA inhibition (A431, 2 µM): 72%

AAGTCAGTACAGAGCA (sugars k4 d9 k3, PS)
target mRNA inhibition (A431, 0.0625 µM): 52%
target mRNA inhibition (A431, 0.25 µM): 79%
target mRNA inhibition (A431, 1 µM): 89%

TTCTATTGGGCCTCAG (sugars k4 d9 k3, PS)
target mRNA inhibition (A431, 0.0625 µM): 74%
target mRNA inhibition (A431, 0.25 µM): 87%
target mRNA inhibition (A431, 1 µM): 94%

GCTAATTTTCTGACTG (sugars kkddddkekekkdddd, PS)
target mRNA inhibition (A431, 2 µM): 71%

GGCAAGGCTAAGTTCC (sugars k4 d9 k3, PS)
target mRNA inhibition (A431, 0.0625 µM): 41%
target mRNA inhibition (A431, 0.25 µM): 75%
target mRNA inhibition (A431, 1 µM): 84%

AACACATCATTGGGTT (sugars kkkddddkekeddddd, PS)
target mRNA inhibition (A431, 2 µM): 21%

CATTCAGAATTTCCAC (sugars k4 d9 k3, PS)
target mRNA inhibition (A431, 0.04 µM): 15%
target mRNA inhibition (A431, 0.0625 µM): 56%
target mRNA inhibition (A431, 0.25 µM): 81%
target mRNA inhibition (A431, 1 µM): 90% and 81%

CTTTATACCAGTGTCT (sugars k2 d4 e3 k2 d5, PS)
target mRNA inhibition (A431, 0.0156 µM): 12%
target mRNA inhibition (A431, 0.0625 µM): 46%
target mRNA inhibition (A431, 0.25 µM): 74%
target mRNA inhibition (A431, 1 µM): 92%
target mRNA inhibition (A431, 2 µM): 96%

AGATTGGCTCTGGCTC (sugars kddddkekekeddddd, PS)
target mRNA inhibition (A431, 2 µM): 23%

TTTGTAAGTGCAACCA (sugars kdddddkekekddddd, PS)
target mRNA inhibition (A431, 0.0156 µM): 24%
target mRNA inhibition (A431, 0.0625 µM): 58%
target mRNA inhibition (A431, 0.25 µM): 86%
target mRNA inhibition (A431, 1 µM): 96%
target mRNA inhibition (A431, 2 µM): 99%

GTTCAAAAGCAGCATT (sugars kkdddddkekeddddd, PS)
target mRNA inhibition (A431, 2 µM): 89%

AAGCTTTAAACTCAGG (sugars k2 d4 e3 k2 d5, PS)
target mRNA inhibition (A431, 0.0156 µM): 15%
target mRNA inhibition (A431, 0.0625 µM): 48%
target mRNA inhibition (A431, 0.25 µM): 76%
target mRNA inhibition (A431, 1 µM): 92%
target mRNA inhibition (A431, 2 µM): 95%

ACACATCATTGGGTTA (sugars k4 d9 k3, PS)
target mRNA inhibition (A431, 0.0625 µM): 54%
target mRNA inhibition (A431, 0.25 µM): 75%
target mRNA inhibition (A431, 1 µM): 87%

TGTATTTCTTGATGTG (sugars kkkddddkekeddddd, PS)
target mRNA inhibition (A431, 2 µM): 71%

GTCATATCAGATGGGT (sugars k4 d9 k3, PS)
target mRNA inhibition (A431, 0.0625 µM): 52%
target mRNA inhibition (A431, 0.25 µM): 77%
target mRNA inhibition (A431, 1 µM): 91%

TCCGTCAATATATTCT (sugars kkddddekekeddddd, PS)
target mRNA inhibition (A431, 0.0156 µM): 33%
target mRNA inhibition (A431, 0.04 µM): 50%
target mRNA inhibition (A431, 0.0625 µM): 61%
target mRNA inhibition (A431, 0.25 µM): 86%
target mRNA inhibition (A431, 1 µM): 96%
target mRNA inhibition (A431, 2 µM): 97%

TTTCATATTCACCCGA (sugars k4 d9 k3, PS)
target mRNA inhibition (A431, 0.0625 µM): 46%
target mRNA inhibition (A431, 0.25 µM): 68%
target mRNA inhibition (A431, 1 µM): 86%

GTATTGCCAGCTAAGG (sugars kdddddkekekddddd, PS)
target mRNA inhibition (A431, 0.0156 µM): 29%
target mRNA inhibition (A431, 0.0625 µM): 50%
target mRNA inhibition (A431, 0.25 µM): 70%
target mRNA inhibition (A431, 1 µM): 87%
target mRNA inhibition (A431, 2 µM): 93%

ATTCTATTAGAGGGCT (sugars kddddkekekeddddd, PS)
target mRNA inhibition (A431, 2 µM): 34%

ACTTTATACCAGTGTC (sugars kkkddddkekeddddd, PS)
target mRNA inhibition (A431, 2 µM): 65%

GTATTGTTTTTGTGGG (sugars kddddkekekeddddd, PS)
target mRNA inhibition (A431, 2 µM): 70%

GCTTTAAACTCAGGTG (sugars k2 d4 e4 k2 d4, PS)
target mRNA inhibition (A431, 2 µM): 95%

GTTATATTTGATCCTC (sugars k2 d4 e4 k2 d4, PS)
target mRNA inhibition (A431, 2 µM): 69%

GTATTTCTTGATGTGG (sugars kkddddkdkdkddddd, PS)
target mRNA inhibition (A431, 2 µM): 87%

ATATCAGATGGGTACT (sugars kkddddekekeddddd, PS)
target mRNA inhibition (A431, 2 µM): 27%

TTTTCACCATAGCACG (sugars k4 d9 k3, PS)
target mRNA inhibition (A431, 0.0625 µM): 33%
target mRNA inhibition (A431, 0.25 µM): 63%
target mRNA inhibition (A431, 1 µM): 85%

ATTCAGAATTTCCACT (sugars kkddddkekekkdddd, PS)
target mRNA inhibition (A431, 2 µM): 57%

GCAGTTTTGTAAGTGC (sugars kkkddddkekeddddd, PS)
target mRNA inhibition (A431, 2 µM): 60%

TTGTAAGTGCAACCAA (sugars k2 d4 e4 k2 d4, PS)
target mRNA inhibition (A431, 2 µM): 70%

ACACATCATTGGGTTA (sugars kkddddkekekkdddd, PS)
target mRNA inhibition (A431, 2 µM): 20%

— the OligoGym collection
